Experiments:
[1] = target: T1, cAMP-dependent protein kinase catalytic subunit PRKX (Homo sapiens) (UniProt P51817); experiment: Residual activity of PRKX at 1 uM by microplate scintillation counting
T1 sequence (whole entry): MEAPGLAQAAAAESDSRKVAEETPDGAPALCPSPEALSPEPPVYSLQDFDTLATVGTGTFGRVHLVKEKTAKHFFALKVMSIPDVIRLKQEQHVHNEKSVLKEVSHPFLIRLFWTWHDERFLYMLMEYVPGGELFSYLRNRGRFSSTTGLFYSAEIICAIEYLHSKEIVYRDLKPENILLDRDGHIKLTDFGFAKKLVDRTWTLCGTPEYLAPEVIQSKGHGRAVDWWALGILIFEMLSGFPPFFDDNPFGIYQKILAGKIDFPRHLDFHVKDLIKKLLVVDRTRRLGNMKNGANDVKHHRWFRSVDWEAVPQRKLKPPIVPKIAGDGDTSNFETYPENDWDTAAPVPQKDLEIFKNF

[2] = target: Cyclin-dependent kinase 16 (Homo sapiens) (UniProt Q00536); experiment: Residual activity of PCTAIRE1 at 1 uM by microplate scintillation counting
Chain of Cyclin-dependent kinase 16 (Homo sapiens) (Q00536 whole entry, the tested form may be a part): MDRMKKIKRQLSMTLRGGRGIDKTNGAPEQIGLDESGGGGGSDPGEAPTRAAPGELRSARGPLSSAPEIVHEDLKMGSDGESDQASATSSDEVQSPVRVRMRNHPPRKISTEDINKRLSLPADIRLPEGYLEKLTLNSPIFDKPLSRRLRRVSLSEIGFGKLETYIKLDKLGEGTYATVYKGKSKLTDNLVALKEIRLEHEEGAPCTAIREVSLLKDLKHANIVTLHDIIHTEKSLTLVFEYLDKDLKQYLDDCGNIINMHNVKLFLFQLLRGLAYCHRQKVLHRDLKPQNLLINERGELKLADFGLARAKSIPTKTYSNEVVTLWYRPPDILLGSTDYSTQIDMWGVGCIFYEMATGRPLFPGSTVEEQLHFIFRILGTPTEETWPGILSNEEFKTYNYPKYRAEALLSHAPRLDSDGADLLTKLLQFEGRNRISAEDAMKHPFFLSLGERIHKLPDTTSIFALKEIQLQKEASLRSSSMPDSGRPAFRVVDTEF

[3] = target: T2, Discoidin domain-containing receptor 2 (Homo sapiens) (UniProt Q16832); experiment: Residual activity of DDR2 at 0.1 uM by microplate scintillation counting
T2 sequence (whole entry): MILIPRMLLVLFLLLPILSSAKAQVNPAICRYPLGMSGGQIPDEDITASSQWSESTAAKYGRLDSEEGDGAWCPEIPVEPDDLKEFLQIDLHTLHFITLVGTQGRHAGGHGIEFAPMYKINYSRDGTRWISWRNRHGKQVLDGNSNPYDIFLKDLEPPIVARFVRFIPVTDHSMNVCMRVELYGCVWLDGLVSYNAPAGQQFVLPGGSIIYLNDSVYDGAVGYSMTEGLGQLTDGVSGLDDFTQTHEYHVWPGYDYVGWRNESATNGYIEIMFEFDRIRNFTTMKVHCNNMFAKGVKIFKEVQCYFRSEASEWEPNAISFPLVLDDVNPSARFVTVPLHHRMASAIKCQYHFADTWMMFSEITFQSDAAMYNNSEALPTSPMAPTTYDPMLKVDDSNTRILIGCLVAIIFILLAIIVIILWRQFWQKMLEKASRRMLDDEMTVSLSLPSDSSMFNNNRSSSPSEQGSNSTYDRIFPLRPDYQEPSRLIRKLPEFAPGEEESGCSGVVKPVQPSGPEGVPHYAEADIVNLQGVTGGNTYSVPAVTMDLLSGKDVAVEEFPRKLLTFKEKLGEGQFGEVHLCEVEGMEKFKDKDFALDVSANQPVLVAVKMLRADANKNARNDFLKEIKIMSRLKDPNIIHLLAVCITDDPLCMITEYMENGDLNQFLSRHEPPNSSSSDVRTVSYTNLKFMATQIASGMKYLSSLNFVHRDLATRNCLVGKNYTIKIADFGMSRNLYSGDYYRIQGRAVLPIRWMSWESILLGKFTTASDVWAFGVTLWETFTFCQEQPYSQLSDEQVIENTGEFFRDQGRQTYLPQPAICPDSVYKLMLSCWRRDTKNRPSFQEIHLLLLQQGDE

[4] = target: Mitogen-activated protein kinase kinase kinase 8 (Homo sapiens) (UniProt P41279); experiment: Residual activity of COT at 0.1 uM by microplate scintillation counting
Chain of Mitogen-activated protein kinase kinase kinase 8 (Homo sapiens) (P41279 whole entry): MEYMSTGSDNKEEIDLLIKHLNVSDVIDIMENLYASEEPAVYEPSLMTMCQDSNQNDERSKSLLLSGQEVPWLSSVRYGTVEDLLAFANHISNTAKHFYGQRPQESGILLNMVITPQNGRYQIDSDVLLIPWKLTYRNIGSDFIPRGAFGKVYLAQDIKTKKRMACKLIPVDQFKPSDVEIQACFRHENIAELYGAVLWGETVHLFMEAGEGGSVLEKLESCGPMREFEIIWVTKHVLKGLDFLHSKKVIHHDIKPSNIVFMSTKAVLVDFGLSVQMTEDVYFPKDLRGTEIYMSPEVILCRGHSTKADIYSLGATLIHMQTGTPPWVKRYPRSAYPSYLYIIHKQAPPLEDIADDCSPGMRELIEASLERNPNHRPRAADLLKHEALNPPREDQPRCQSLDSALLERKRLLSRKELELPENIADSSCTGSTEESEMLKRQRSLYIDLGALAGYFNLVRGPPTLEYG

[5] = target: Serine/threonine-protein kinase PAK 5 (Homo sapiens) (UniProt Q9P286); experiment: Residual activity of PAK7 at 1 uM by microplate scintillation counting
Chain of Serine/threonine-protein kinase PAK 5 (Homo sapiens) (Q9P286 whole entry, looked up, canonical isoform): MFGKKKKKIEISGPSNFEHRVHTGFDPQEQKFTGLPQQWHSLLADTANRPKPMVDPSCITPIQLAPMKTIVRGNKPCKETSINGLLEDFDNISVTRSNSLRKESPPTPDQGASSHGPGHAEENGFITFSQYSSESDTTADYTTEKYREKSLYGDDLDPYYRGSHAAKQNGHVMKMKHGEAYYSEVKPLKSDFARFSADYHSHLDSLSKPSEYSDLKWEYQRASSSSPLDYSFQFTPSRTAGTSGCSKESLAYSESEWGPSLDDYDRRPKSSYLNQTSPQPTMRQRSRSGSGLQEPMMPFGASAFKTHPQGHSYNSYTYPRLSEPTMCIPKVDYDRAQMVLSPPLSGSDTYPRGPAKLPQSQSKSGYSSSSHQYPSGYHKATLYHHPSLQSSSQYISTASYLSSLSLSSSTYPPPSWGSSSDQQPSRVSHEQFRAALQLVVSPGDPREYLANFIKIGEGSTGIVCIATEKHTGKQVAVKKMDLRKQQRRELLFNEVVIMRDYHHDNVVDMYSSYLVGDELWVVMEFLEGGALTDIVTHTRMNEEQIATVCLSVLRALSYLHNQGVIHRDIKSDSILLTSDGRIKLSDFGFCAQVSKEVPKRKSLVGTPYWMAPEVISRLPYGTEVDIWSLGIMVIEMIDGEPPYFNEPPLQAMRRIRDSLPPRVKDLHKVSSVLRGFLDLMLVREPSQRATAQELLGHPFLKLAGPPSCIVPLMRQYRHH

[6] = target: Casein kinase I isoform delta (Homo sapiens) (UniProt P48730); experiment: Residual activity of CK1delta at 10 uM by microplate scintillation counting
Chain of Casein kinase I isoform delta (Homo sapiens) (P48730 whole entry, looked up, canonical isoform): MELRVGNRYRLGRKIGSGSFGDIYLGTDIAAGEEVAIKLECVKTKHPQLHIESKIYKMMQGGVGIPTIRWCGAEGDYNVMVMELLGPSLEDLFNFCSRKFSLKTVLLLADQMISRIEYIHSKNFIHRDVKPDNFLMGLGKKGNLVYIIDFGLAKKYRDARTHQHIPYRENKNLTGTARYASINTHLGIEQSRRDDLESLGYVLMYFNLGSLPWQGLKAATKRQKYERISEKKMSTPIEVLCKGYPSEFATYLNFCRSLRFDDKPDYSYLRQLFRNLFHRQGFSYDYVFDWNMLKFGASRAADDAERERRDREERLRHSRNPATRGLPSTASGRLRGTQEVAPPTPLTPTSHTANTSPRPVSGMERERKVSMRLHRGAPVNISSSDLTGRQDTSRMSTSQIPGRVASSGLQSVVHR

[7] = target: BDNF/NT-3 growth factors receptor (Homo sapiens) (UniProt Q16620); experiment: Residual activity of TRK-B at 10 uM by microplate scintillation counting
Chain of BDNF/NT-3 growth factors receptor (Homo sapiens) (Q16620 32-822 limits assumed): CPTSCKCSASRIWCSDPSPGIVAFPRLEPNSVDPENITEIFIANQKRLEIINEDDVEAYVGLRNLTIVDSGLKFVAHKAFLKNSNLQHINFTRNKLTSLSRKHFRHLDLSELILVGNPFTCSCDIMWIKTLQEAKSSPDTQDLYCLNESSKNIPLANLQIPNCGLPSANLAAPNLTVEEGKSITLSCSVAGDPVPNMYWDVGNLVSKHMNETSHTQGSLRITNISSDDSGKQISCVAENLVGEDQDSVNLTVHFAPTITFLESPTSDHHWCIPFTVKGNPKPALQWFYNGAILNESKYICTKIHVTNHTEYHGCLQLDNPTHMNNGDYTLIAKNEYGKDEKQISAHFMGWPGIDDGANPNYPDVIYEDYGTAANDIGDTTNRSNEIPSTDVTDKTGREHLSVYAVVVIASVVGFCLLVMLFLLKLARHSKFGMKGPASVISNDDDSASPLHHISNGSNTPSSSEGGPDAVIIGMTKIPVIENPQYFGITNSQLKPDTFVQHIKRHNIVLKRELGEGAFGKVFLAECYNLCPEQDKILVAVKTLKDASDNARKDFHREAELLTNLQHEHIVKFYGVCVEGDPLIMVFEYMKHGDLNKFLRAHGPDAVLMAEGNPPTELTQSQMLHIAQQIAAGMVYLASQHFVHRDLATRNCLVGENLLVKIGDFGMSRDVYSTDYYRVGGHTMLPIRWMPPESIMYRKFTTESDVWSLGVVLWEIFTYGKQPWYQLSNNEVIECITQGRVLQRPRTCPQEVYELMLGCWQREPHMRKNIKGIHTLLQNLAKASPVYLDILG

[8] = target: T3, Testis-specific serine/threonine-protein kinase 2 (Homo sapiens) (UniProt Q96PF2); experiment: Residual activity of TSK2 at 0.1 uM by microplate scintillation counting
T3 sequence (whole entry): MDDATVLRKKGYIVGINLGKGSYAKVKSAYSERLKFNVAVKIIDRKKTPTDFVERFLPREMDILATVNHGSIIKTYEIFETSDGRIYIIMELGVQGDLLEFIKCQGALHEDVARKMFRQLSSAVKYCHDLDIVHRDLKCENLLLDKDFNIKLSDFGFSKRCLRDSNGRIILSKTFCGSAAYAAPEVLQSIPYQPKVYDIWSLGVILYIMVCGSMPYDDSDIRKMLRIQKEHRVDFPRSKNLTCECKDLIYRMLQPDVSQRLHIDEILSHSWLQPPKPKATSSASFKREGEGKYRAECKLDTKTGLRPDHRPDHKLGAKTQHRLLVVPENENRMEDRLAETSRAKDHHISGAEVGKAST

[9] = target: T4, Ephrin type-B receptor 3 (Homo sapiens) (UniProt P54753); experiment: Residual activity of EPHB3 at 0.1 uM by microplate scintillation counting
T4 sequence (whole entry): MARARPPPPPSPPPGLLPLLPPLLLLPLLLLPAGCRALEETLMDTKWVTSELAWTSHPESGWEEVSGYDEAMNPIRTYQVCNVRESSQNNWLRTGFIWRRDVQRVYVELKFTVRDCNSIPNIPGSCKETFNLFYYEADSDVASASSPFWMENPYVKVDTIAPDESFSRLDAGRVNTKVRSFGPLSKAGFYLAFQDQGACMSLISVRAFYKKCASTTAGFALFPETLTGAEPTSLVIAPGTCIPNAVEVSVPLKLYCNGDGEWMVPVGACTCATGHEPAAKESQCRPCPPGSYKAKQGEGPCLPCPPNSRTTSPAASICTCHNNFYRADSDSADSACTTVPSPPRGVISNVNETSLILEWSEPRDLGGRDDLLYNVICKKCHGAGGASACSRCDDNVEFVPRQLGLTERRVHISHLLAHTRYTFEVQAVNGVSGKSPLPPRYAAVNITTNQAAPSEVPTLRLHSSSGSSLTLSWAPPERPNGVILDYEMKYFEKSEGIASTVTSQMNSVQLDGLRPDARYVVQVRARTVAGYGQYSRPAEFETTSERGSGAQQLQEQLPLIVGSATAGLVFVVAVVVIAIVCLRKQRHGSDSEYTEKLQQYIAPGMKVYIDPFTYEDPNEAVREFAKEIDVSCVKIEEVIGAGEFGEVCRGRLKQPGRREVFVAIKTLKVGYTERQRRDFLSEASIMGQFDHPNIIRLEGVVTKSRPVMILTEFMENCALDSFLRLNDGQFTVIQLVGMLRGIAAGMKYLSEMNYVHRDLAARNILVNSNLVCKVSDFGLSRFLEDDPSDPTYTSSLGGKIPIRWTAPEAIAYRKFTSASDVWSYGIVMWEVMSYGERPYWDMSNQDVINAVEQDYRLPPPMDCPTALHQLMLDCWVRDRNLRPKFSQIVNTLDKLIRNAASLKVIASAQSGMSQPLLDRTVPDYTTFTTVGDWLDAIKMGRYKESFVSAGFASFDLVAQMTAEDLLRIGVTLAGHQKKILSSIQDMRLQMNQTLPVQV

Q: How did the residual activity [1] turn out when `COc1cc2c(Oc3ccc(-c4nc5ccccc5s4)cc3)ncnc2cc1OCCCN1CCN(C)CC1` was run?
A: Its residual activity is 89%.

Q: What about the residual activity [2] of the same compound?
A: Its residual activity is 88%.

Q: And the residual activity [3]?
A: The residual activity was 88%.

Q: And the residual activity [4]?
A: The residual activity was 101%.

Q: And the residual activity [5]?
A: Its residual activity is 77%.

Q: What about the residual activity [6] of the same compound?
A: Its residual activity is 156%.

Q: And the residual activity [7]?
A: The residual activity was 114%.

Q: What about the residual activity [8] of the same compound?
A: The residual activity was 97%.

Q: What about the residual activity [9] of the same compound?
A: Its residual activity is 112%.

Q: How did the residual activity [1] turn out when `COc1cc2c(Oc3ccc(-c4nc5ccccc5s4)cc3F)ncnc2cc1OCCCN1CCN(C)CC1` was run?
A: The residual activity was 92%.

Q: What about the residual activity [2] of the same compound?
A: The residual activity was 86%.

Q: And the residual activity [3]?
A: The residual activity was 93%.

Q: What about the residual activity [4] of the same compound?
A: Its residual activity is 78%.

Q: What about the residual activity [5] of the same compound?
A: Its residual activity is 83%.

Q: What about the residual activity [6] of the same compound?
A: Its residual activity is 149%.

Q: What about the residual activity [7] of the same compound?
A: The residual activity was 69%.

Q: And the residual activity [8]?
A: The residual activity was 96%.

Q: And the residual activity [9]?
A: Its residual activity is 117%.

Q: What does the source list for `COc1cc2c(Oc3ccc(-c4nc5ccccc5s4)cc3)ncnc2cc1OCCCN1CCCC1`?
A: residual activity [1]: 86%; residual activity [2]: 81%; residual activity [3]: 97%; residual activity [4]: 73%; residual activity [5]: 83%; residual activity [6]: 133%; residual activity [7]: 82%; residual activity [8]: 101%; residual activity [9]: 102%
